The test system of assay [1] is latent HIV in 89mASG- and R7GEmC-infected single-positive Jurkat T cells. Description: Reactivation of latent HIV in sorted single-positive (latent) Jurkat T cells, FACS. It counts as cell-based, HIV-1. Particulars: for expression of HIV promoter-dependent reporter: 89mASG and R7GEmC latent Jurkat T cells, 10 ng/ml TNFα, 5 μM prostratin or 2.5 μM SAHA alone; for reactivation activity (percent population in the productive gate): 89mASG and R7GEmC single-positive latent populations, 30, 10 and 3 μM.

Assay [2] relates to latent HIV in sorted GFP-only 89mASG-infected Jurkat cells. Description: High-throughput imaging screen for latent HIV reactivation (Tocriscreen library). It counts as cell-based, HIV-1. To be noted: 24 hr; for red signal (mApple, reactivated virus) versus negative controls: positive control wells, 10 ng/ml TNFα, 5 μM prostratin or 2.5 μM SAHA and combinations; for reactivation of latent HIV in the screen: 30 μM, total red area higher than median+2 SD of negative control wells. The text has this:
(§1) Sorted 89mASG-infected, GFP-only-positive Jurkat cells were used to test the Tocriscreen drug library for latent HIV reactivation (see Methods). (a) Dot plot showing quantification of total blue area (Hoechst 33342 signal, total cell) against total red area (mApple signal, reactivated HIV). Red dots indicate the position of untreated wells (Negative controls); the shaded area indicates the median±2SD of the red/blue area ratio for negative control wells. Green dots indicate positive control wells, treated with 10 ng/ml TNFα, 5 μM prostratin or 2.5 μM SAHA and their combinations. […] Representative FACS plots of sorted single-positive Jurkat T cells for both viruses. The productive gate contains the reactivated cells. […] (c,d) Histogram plot of percent population in the productive gate (grey) for each treatment and percentage of cells in the live gate (light blue) for sorted single-positive Jurkat T cells for 89mASG (c) and R7GEmC (d) reporters. Data shown as mean±SD for three different treatments. For each compound, a grey triangle between the histograms indicates decreasing drug concentration (30, 10 and 3 μM). […] (e) FACS analysis of drug treatments combined with 0.5 μM SAHA, 0.5 μM prostratin and 0.5 ng/ml TNFα. Representative FACS plots of sorted GFP-only-positive Jurkat T cells for 89mASG treated with DMSO (control), SAHA (0.5 μM) alone or with terreic acid (10 μM) and dilazep (30 μM). (f) Histogram plot of percent population of the sorted cells in the productive gate for each treatment at indicated concentrations (μM).

For assay [3], the system named is latent provirus in mCherry-only R7GEmC-infected primary CD4+ T cells. Description: Reactivation of sorted mCherry-only (latent) primary CD4+ T cells infected with R7GEmC. The assay is classed as cell-based, HIV-1. To be noted: for response of mCherry-only positive cells to treatment: three pooled donors, 1 μM prostratin, 1 μM SAHA. As for the experimental part:
HEK293T, Jurkat, A301 and SupT1 cell lines were obtained from ATCC. Suspension cells were cultured in RPMI 1640 supplemented with 10% FBS, 100 U/ml penicillin, […] streptomycin and 2 mM L-glutamine (PSG) (37° C., 5% CO2). Peripheral blood from healthy human donors was obtained from the Stanford Blood Center and processed the day of collection. CD4^+ T cells were isolated with RosetteSep Human CD4^+ T-Cell Enrichment Cocktail (Stem Cell Technologies) and cultured in human cell medium (HCM, RPMI, 10% human AB pooled serum, PSG). Resting CD4^+ T cells were activated in U-bottom 96-well TC plates with 25 μl human anti-CD3 and anti-CD28-coated dynabeads/10^6 cells (48 h). Dynabeads were removed by magnetic separation and cells seeded in HCM with 30 IU/ml rhIL-2. Cell lines and activated CD4^+ cells were infected by spinoculation (Lassen et al., PLoS One. 2012; 7(1):e30176, which is hereby incorporated by reference in its entirety) with a virus amount equivalent to 20 ng p24 or as indicated. Viral infection was assessed by fluorescence activated cell sorting (FACS) analysis after 72 h. At 5 days post-infection, cells were sorted to separate negative, single- or double-positive cells. Sorted cell lines were treated after re-expansion for 5-15 days. Cells were seeded in 96-well U plates and treated for 24 h before analysis. […]
The extent to which mCherry-only-positive populations could be reactivated by further stimulation was next evaluated. […]
(a) FACS analysis of activated CD4^+ T cells from two human donors (#1, #2) infected with R7GEmC at indicated virus amounts. (b) Fluorescence microscopy image of infected CD4^+ T cells showing mCherry-positive (latent, red) and GFP-positive (active, green) cells. (c) qPCR quantification of proviral DNA in the sorted populations, using primer-probe combinations for the HIV-1 gag gene and the RNAseP gene for normalization. […] (d) Western blot quantification of HIV gag and cell α-actin in sorted CD4^+ T cell populations from pooled donors. […]

The subject of another assay is HIV RNA expression. To be noted: recent study; cited from earlier work.
In assay [4] the test system is R7GEmC infection of activated CD4+ T cells. Description: Infection of activated CD4+ T cells with R7GEmC in the presence of integrase inhibitor (pre-integration latency). The assay is classed as cell-based, HIV-1. To be noted: 30 μM Raltegravir; after 3 days. The source says: HIV latency in vivo is reported to result, in part, from pre-integration latency, whereby unintegrated proviral DNA (after full retrotranscription) is maintained in a stable cytoplasmic form in a quiescent cell, and can respond to cell activation by de novo integration and productive infection. To rule out pre-integration latency, activated CD4^+ T cells were infected with R7GEmC in the presence of the HIV integrase inhibitor raltegravir (FIG. 6A).
(a) FACS analysis of activated CD4^+ T cells from two human donors (#1, #2) infected with R7GEMC alone or with 30 μM Raltegravir (RALTE 30). (b) Analysis of sorted CD4^+ T-cell populations from donors 1 and 2, after 48 h with anti-CD3/CD28-coated Dynabeads (αCD3/28), alone, with 30 μM Raltegravir, or untreated (CTR).

The subject of assay [5] is latent HIV in sorted latent-cell populations (GFP-only-positive 89mASG Jurkat T cells). The assay is described as follows: Co-treatment with low levels of SAHA, prostratin or TNFα, FACS. It counts as cell-based, HIV-1. To be noted: 24 h; for effect on HIV latency in combination with SAHA: 10 μM with low SAHA (0.5 μM); for interaction with prostratin: with low prostratin (0.5 μM).
From the text: Thus, it might be of interest to identify compounds that can potentiate HIV reactivation by SAHA or prostratin or TNFα.
as §1

Consider eleven molecules from patent US10106818B2, “Dual-color HIV reporter system for the detection of latently-infected cells” (priority 2013, dated 2018).

Take `O=C(CCCCCCC(=O)Nc1ccccc1)NO` [SAHA, suberoylanilide hydroxamic acid]: the “expression of HIV promoter-dependent reporter” value in assay [1] was “increased expression of HIV promoter-dependent reporter”. In addition, the “red signal (mApple, reactivated virus) versus negative controls” value in assay [2] is given as “notably higher red signal”. In addition, in assay [3], the “response of mCherry-only positive cells to treatment” value was “A subset of less-bright mCherry-only positive cells also responded”. In addition, the “reactivation of HIV RNA expression in patients” value in the assay with HIV RNA expression was “can reactivate HIV RNA expression in a subset of patients”.

As for `CN1CCc2cccc3c2[C@H]1Cc1ccc(O)c(O)c1-3` [apomorphin, apomorphine], in assay [1], the “reactivation activity (percent population in the productive gate)” value is reported as “distinct effects in the two HIV clones”.

Consider `Oc1ccc(C=Cc2cc(O)cc(O)c2)cc1` [resveratrol], for which the “reactivation of latent HIV in the screen” value in assay [2] was “reactivated latent HIV”.

On to `N#C/C(=C\c1ccc(O)c(O)c1)C(=O)NCCCc1ccccc1` [AG555, α-Cyano-(3,4-dihydroxy)-N-(3-phenylpropyl)cinnamide], for which the “reactivation activity (percent population in the productive gate)” value in assay [1] was “slight but significant reactivation activity”.

Regarding `Cc1nnc(C(=O)NC(C)(C)c2nc(C(=O)NCc3ccc(F)cc3)c(O)c(=O)n2C)o1` [raltegravir], the “effect on viral reactivation in the mCherry-only-positive population” value in assay [3] (30 μM Raltegravir with anti-CD3/CD28-coated Dynabeads, 48 h) was “did not reduce viral reactivation”. The “integration-independent expression of the fluorescent proteins” value in assay [4] was “no integration-independent expression of the fluorescent proteins”.

On to `CC(=O)O[C@@]12C[C@@H](C)[C@@]3(O)[C@@H](C=C(CO)C[C@]4(O)C(=O)C(C)=C[C@@H]34)[C@@H]1C2(C)C` [prostratin, (1aR,1bS,4aR,7aS,7bR,8R,9aS)-4a,7b-dihydroxy-3-(hydroxymethyl)-1,1,6,8-tetramethyl-5-oxo-1,1a,1b,4,4a,5,7a,7b,8,9-decahydro-9aH-cyclopropa[3,4]benzo[1,2-e]azulen-9a-yl], for which the “expression of HIV promoter-dependent reporter” value in assay [1] is given as “increased expression of HIV promoter-dependent reporter”. Moreover, the “red signal (mApple, reactivated virus) versus negative controls” value in assay [2] is reported as “notably higher red signal”. The “response of mCherry-only positive cells to treatment” value in assay [3] was “A subset of less-bright mCherry-only positive cells also responded”.

Regarding `O=c1c(-c2ccc(O)cc2)coc2cc(O)cc(O)c12` [genistein], the “reactivation of latent HIV in the screen” value in assay [2] is “reactivated latent HIV”.

For `COc1cc(C(=O)OCCCN2CCCN(CCCOC(=O)c3cc(OC)c(OC)c(OC)c3)CC2)cc(OC)c1OC` [dilazep], in assay [1], the “reactivation activity (percent population in the productive gate)” value is on record as “slight but significant reactivation activity”. In assay [5], the “effect on HIV latency in combination with SAHA” value is “strongly enhanced the effect of low SAHA concentrations” and the interaction with prostratin result is “synergistic with prostratin”.

`O=C1C(SCCO)=C(SCCO)C(=O)c2ccccc21` [NSC 95397]: the “reactivation activity (percent population in the productive gate)” value in assay [1] is “clear artifacts or false positives”.

Turning to TNF-α, the “expression of HIV promoter-dependent reporter” value in assay [1] is given as “increased expression of HIV promoter-dependent reporter”. In addition, the “red signal (mApple, reactivated virus) versus negative controls” value in assay [2] is listed as “notably higher red signal”.

Take `CC1=C(O)C(=O)[C@@H]2O[C@@H]2C1=O` [terreic acid, (−)-terreic acid]: in assay [1], the “reactivation activity (percent population in the productive gate)” value is on record as “slight but significant reactivation activity”. Further, in assay [5], the “effect on HIV latency in combination with SAHA” value is listed as “strongly enhanced the effect of low SAHA concentrations” and the interaction with prostratin result is reported as “synergistic with prostratin”. Besides, the “interaction with TNFα” value in assay [5] (with low TNFα (0.5 ng/ml)) is listed as “synergistic interaction in most combinations except terreic acid”.
